Assay results reported in BindingDB's records for doi:10.7270/Q2H70D5W (University of Pittsburgh, 2007).
pIC50: −log10 of the molar value.

Biological target: Gag-Pol polyprotein (Human immunodeficiency virus type 1 group M subtype B (isolate HXB2), UniProt P04585)
Experiment: HIV-1 RT RNase H inhibitor potency, dose response, biochemical, probe assessment (AID 652)
Conditions: pH 8; 23 °C

SMILES	pIC50
Cc1ccc(NC(=O)Cn2nnc(C(=O)Nc3ccc(C)c(C)c3)c2N)cc1 [5-amino-N-(3,4-dimethylphenyl)-1-[2-(4-methylanilino)-2-oxoethyl]-4-triazolecarboxamide]	4.78
c1ccc2c(c1)OCC(c1nnc3sc(-c4ccc5c(c4)OCO5)nn13)O2 (configuration not stated) [6-(1,3-benzodioxol-5-yl)-3-(2,3-dihydro-1,4-benzodioxin-3-yl)-[1,2,4]triazolo[3,4-b][1,3,4]thiadiazole]	5.84
Fc1ccc(-c2nnc3sc(-c4ccc5c(c4)OCO5)nn23)cc1 [6-(1,3-benzodioxol-5-yl)-3-(4-fluorophenyl)-[1,2,4]triazolo[3,4-b][1,3,4]thiadiazole]	5.41
Clc1ccccc1-c1nn2c(-c3ccncc3)nnc2s1 [6-(2-chlorophenyl)-3-(4-pyridinyl)[1,2,4]triazolo[3,4-b][1,3,4]thiadiazole]	5.57
CCn1cc(C(=O)NCc2ccco2)c(=O)c2cc(S(=O)(=O)N3CCc4ccccc4C3)ccc21 [6-(3,4-dihydro-1H-isoquinolin-2-ylsulfonyl)-1-ethyl-N-(2-furanylmethyl)-4-oxo-3-quinolinecarboxamide]	5.03
COc1cc(-c2nnc3sc(-c4cccnc4)nn23)cc(OC)c1OC [6-(3-pyridinyl)-3-(3,4,5-trimethoxyphenyl)-[1,2,4]triazolo[3,4-b][1,3,4]thiadiazole]	< 4.30
COc1cc(-c2nnc3sc(Cc4ccc(Cl)cc4)nn23)cc(OC)c1OC [6-(4-chlorobenzyl)-3-(3,4,5-trimethoxyphenyl)-[1,2,4]triazolo[3,4-b][1,3,4]thiadiazole]	5.97
c1c2c(cc3sc(N4CCOCC4)nc13)OCO2 [6-(4-morpholinyl)-[1,3]dioxolo[4,5-f][1,3]benzothiazole]	5.44
c1ccc(N2CCN(c3nc4cc5c(cc4s3)OCO5)CC2)cc1 [6-(4-phenyl-1-piperazinyl)-[1,3]dioxolo[4,5-f][1,3]benzothiazole]	5.49
Cc1ccccc1NC(=O)c1c(O)n2c3c(cccc3c1=O)CC2 [6-Hydroxy-4-oxo-1,2-dihydro-4H-pyrrolo[3,2,1-ij]quinoline-5-carboxylic acid o-tolylamide]	4.66
O=C(NCCc1ccccc1)c1c(O)n2c3c(cccc3c1=O)CC2 [6-Hydroxy-4-oxo-1,2-dihydro-4H-pyrrolo[3,2,1-ij]quinoline-5-carboxylic acid phenethyl-amide]	5.00
Cc1oc(-c2ccc(Cl)cc2)cc1-c1nn2c(-c3ccoc3C)nnc2s1 [6-[5-(4-chlorophenyl)-2-methyl-3-furanyl]-3-(2-methyl-3-furanyl)-[1,2,4]triazolo[3,4-b][1,3,4]thiadiazole]	5.93
Fc1ccc(-c2ccc(-c3nn4c(-c5ccco5)nnc4s3)o2)cc1 [6-[5-(4-fluorophenyl)-2-furanyl]-3-(2-furanyl)-[1,2,4]triazolo[3,4-b][1,3,4]thiadiazole]	5.05
Cc1ccc(-c2cc(C(=O)NC3=NCCS3)c3cc(Br)ccc3n2)o1 [6-bromanyl-N-(4,5-dihydro-1,3-thiazol-2-yl)-2-(5-methylfuran-2-yl)quinoline-4-carboxamide]	6.76
COc1ccc(N2CCN(Cc3cc(=O)oc4cc(C)c(Cl)c(C)c34)CC2)cc1 [6-chloranyl-4-[[4-(4-methoxyphenyl)piperazin-1-yl]methyl]-5,7-dimethyl-chromen-2-one]	5.41
O=c1cc(CN2CCN(c3ccccc3)CC2)c2cc(O)c(-c3ccccc3)cc2o1 [6-hydroxy-7-phenyl-4-[(4-phenyl-1-piperazinyl)methyl]-1-benzopyran-2-one]	5.30
CC(C)(C)C1=Nn2c(nnc2-c2ccccn2)SC1 [6-tert-butyl-3-(2-pyridinyl)-7H-[1,2,4]triazolo[3,4-b][1,3,4]thiadiazine]	5.14
CC1(C)Cc2[nH]c(=S)c(C#N)cc2CO1 [7,7-dimethyl-2-sulfanylidene-5,8-dihydro-1H-pyrano[4,3-b]pyridine-3-carbonitrile]	5.39
O=C1CC(c2ccco2)Cc2nc(Nc3nc(-c4ccccc4)c4ccccc4n3)ncc21 (configuration not stated) [7-(2-furanyl)-2-[(4-phenyl-2-quinazolinyl)amino]-7,8-dihydro-6H-quinazolin-5-one]	4.86
CCN1CCN(c2nc(C)nc3c2sc(=S)n3C)CC1 [7-(4-ethyl-1-piperazinyl)-3,5-dimethyl-2-thiazolo[4,5-d]pyrimidinethione]	5.53
Cc1ccc(-c2cc(C(F)F)n3ncc(C(=O)NCc4ccco4)c3n2)cc1 [7-(difluoromethyl)-N-(2-furanylmethyl)-5-(4-methylphenyl)-3-pyrazolo[1,5-a]pyrimidinecarboxamide]	4.82
COc1ccc(C2c3c(oc4ccc(Cl)cc4c3=O)C(=O)N2Cc2ccco2)cc1OC (configuration not stated) [7-chloranyl-1-(3,4-dimethoxyphenyl)-2-(furan-2-ylmethyl)-1H-chromeno[2,3-c]pyrrole-3,9-dione]	4.87
CCOc1cc(C2c3c(oc4cc(C)c(Cl)cc4c3=O)C(=O)N2Cc2ccco2)ccc1O (configuration not stated) [7-chloranyl-1-(3-ethoxy-4-oxidanyl-phenyl)-2-(furan-2-ylmethyl)-6-methyl-1H-chromeno[2,3-c]pyrrole-3,9-dione]	5.16
O=C(NCc1ccco1)c1cc2cc3ccc(Cl)cc3nc2o1 [7-chloranyl-N-(furan-2-ylmethyl)furo[2,3-b]quinoline-2-carboxamide]	4.72
C=CCSc1nc2c(c(=O)[nH]c(=O)n2C)n1CC [7-ethyl-3-methyl-8-prop-2-enylsulfanylpurine-2,6-dione]	5.43
COc1ccc(Br)cc1C1CC(=O)N2CN(C)CSC2=C1C#N (configuration not stated) [8-(5-bromanyl-2-methoxy-phenyl)-3-methyl-6-oxidanylidene-2,4,7,8-tetrahydropyrido[2,1-b][1,3,5]thiadiazine-9-carbonitrile]	5.14

SMILES	pIC50
COc1ccccc1/N=c1\oc2c(OC)cccc2cc1C(=O)NCc1ccco1 [8-Methoxy-2-[(Z)-2-methoxy-phenylimino]-2H-chromene-3-carboxylic acid (furan-2-ylmethyl)-amide]	5.50
O=c1ccc2cc3c([nH]c4ccc(Br)cc43)oc-2c1O [9-bromo-4-hydroxy-6H-[1]benzopyrano[2,3-b]indol-3-one]	5.83
O=C(c1ccccc1F)N1CCN(S(=O)(=O)c2ccc(S(=O)(=O)N3CCCCC3)cc2)CC1 [(2-Fluoro-phenyl)-{4-[4-(piperidine-1-sulfonyl)-benzenesulfonyl]-piperazin-1-yl}-methanone]	4.36
OCCN1CCN(C(=S)c2ccc(Cl)c(Cl)c2)CC1 [(3,4-dichlorophenyl)-[4-(2-hydroxyethyl)-1-piperazinyl]methanethione]	5.50
CN1CCN(C(=O)c2sc(=S)n(-c3ccccc3)c2N)CC1 [(4-amino-3-phenyl-2-sulfanylidene-1,3-thiazol-5-yl)-(4-methylpiperazin-1-yl)methanone]	5.64
Nc1c(C(=O)N2CCOCC2)sc(=S)n1-c1ccccc1 [(4-amino-3-phenyl-2-sulfanylidene-1,3-thiazol-5-yl)-morpholin-4-ylmethanone]	5.30
Nc1c(C(=O)N2CCCCC2)sc(=S)n1-c1ccccc1 [(4-amino-3-phenyl-2-sulfanylidene-1,3-thiazol-5-yl)-piperidin-1-ylmethanone]	5.73
COc1ccccc1-c1nnc2n1N=C(c1ccc(O)c(O)c1)CS2 [(4E)-4-[3-(2-methoxyphenyl)-5H-[1,2,4]triazolo[3,4-b][1,3,4]thiadiazin-6-ylidene]-2-oxidanyl-cyclohexa-2,5-dien-1-one]	6.00
O=c1[nH]c(=O)n(-c2ccc(F)cc2)c(O)c1C=Nc1ccccc1N1CCCC1 [(5E)-1-(4-fluorophenyl)-5-[[2-(1-pyrrolidinyl)anilino]methylidene]-1,3-diazinane-2,4,6-trione]	4.64
CN(C)c1ccc(NC=C2C(=O)NC(=O)N(CCC3=CCCCC3)C2=O)cc1 [(5Z)-1-[2-(cyclohexen-1-yl)ethyl]-5-[[[4-(dimethylamino)phenyl]amino]methylidene]-1,3-diazinane-2,4,6-trione]	5.42
CCOC(=O)N1CCC2=C(C#N)C(=N)C(C#N)(C#N)[C@H](c3ccc(OC(C)C)c(OCC)c3)[C@H]2C1 [(8S,8aR)-6-amino-5,7,7-tricyano-8-(3-ethoxy-4-isopropoxy-phenyl)-1,3,8,8a-tetrahydroisoquinoline-2-carboxylic acid ethyl ester]	4.66
CCCCC[C@H](O)C=C[C@H]1C=CC(=O)[C@@H]1C/C=C\CCCC(=O)O [(Z)-7-[(1R,5S)-2-oxidanylidene-5-[(E,3S)-3-oxidanyloct-1-enyl]cyclopent-3-en-1-yl]hept-5-enoic acid]	5.97
CC(Cc1ccc(O)c(O)c1)C(C)Cc1ccc(O)c(O)c1 (configuration not stated) [LOX inhibitor, N/A]	6.18
CCC1(C)Cc2c(sc3c2c(=O)n(C)c2nnc(SCc4ccc5c(c4)OCO5)n32)CO1 (configuration not stated) [MLS000030507]	4.64
CC1CCN(S(=O)(=O)c2ccc(NC(=O)Cn3nnc(-c4ccccc4)n3)cc2)CC1 [MLS000032813]	4.66
O=C1c2sc3nc4ccccc4n3c2C(=O)N1c1ccccc1Cl [MLS000038506]	5.95
c1ccc(-n2ncc3c2ncn2nc(-c4ccco4)nc32)cc1 [MLS000041701]	5.10
COC(=O)N(c1ccc(OC)cc1)P1(=S)OCCC(C)O1 (configuration not stated) [MLS000043492]	5.99
Cc1ccccc1OCc1nc(-c2ccc(NC(=O)c3ccc4c(c3)OCO4)cc2)no1 [MLS000047257]	5.34
CC(=O)c1cccc(NC(=O)c2cc(-c3ccc(C)cc3)on2)c1 [MLS000050755]	4.88
O=C(CCN1C(=O)c2ccccc2C1=O)Nc1ccc(-c2nc3ccccc3o2)cc1 [MLS000051238]	5.24
COc1cc(C(=O)Nc2oc(-c3ccccc3)c(-c3ccccc3)c2C#N)cc(OC)c1OC [MLS000051579]	5.22
Cc1cc(C)c2oc(-c3ccc(Cl)c(NC(=O)c4ccc(C#N)cc4F)c3)nc2c1 [MLS000052597]	5.56
COC(=O)N(c1ccccc1)P1(=S)OCCO1 [MLS000052970]	5.69
O=C(Nc1nc(-c2ccncc2)cs1)c1ccco1 [MLS000053154]	5.25
N#Cc1c(NC(=O)CN2CCN(S(=O)(=O)c3ccc4c(c3)OCCO4)CC2)sc2c1CCC2 [MLS000053165]	5.46
